Structures are written as SMILES.

The data set can be described thus: method code SF-AS, from DOI: 10.1021/jo00922a017. To be noted: pH 1.0.

As a reminder, the logD is the decadic logarithm of the distribution of all forms, ionised or not, between an organic phase and buffer at a given pH. A high value points to higher lipophilicity. As for `O=S(=O)(Nc1ccccc1)C(F)F`, the logD was 1.95.
In the case of `O=S(=O)(Nc1cccc(O)c1)C(F)(F)F` it was 2.51; in that of `O=C(c1ccccc1)c1ccc(NS(=O)(=O)C(F)(F)F)cc1`, 4.28.
As for `CS(=O)(=O)c1ccc(NS(=O)(=O)C(F)(F)F)cc1`, the figure is 1.99; as for `O=S(=O)(Nc1cccc(Cl)c1)C(F)(F)F`, 4; as for `O=S(=O)(Nc1cccc(C(F)(F)F)c1)C(F)(F)F`, 4.5.
In turn, `O=S(=O)(Nc1ccc(F)cc1)C(F)(F)F` yielded a logD of 3.25.
In the case of `O=S(=O)(Nc1ccc(I)cc1)C(F)(F)F` it was 4.39; in that of `O=S(=O)(Nc1ccccc1)C(F)(F)F`, 3.05; in that of `CC(=O)c1ccc(NS(=O)(=O)C(F)(F)F)cc1`, 2.83.
As for `COc1cccc(NS(=O)(=O)C(F)(F)F)c1`, the figure is 3.13; as for `O=S(=O)(Nc1cccc(F)c1)C(F)(F)F`, 3.42.
In the case of `Cc1ccc(NS(=O)(=O)C(F)(F)F)cc1` it was 3.6; in that of `COc1ccc(NS(=O)(=O)C(F)(F)F)cc1`, 3.
The compound `CS(=O)(=O)Nc1ccc(Cl)cc1` had a logD of 1.85.
As for `CC(=O)c1cccc(NS(=O)(=O)C(F)(F)F)c1`, the figure is 2.78.
In the case of `O=S(=O)(Nc1ccc(F)cc1F)C(F)(F)F` it was 3.06; in that of `O=S(=O)(CF)Nc1ccccc1`, 1.35.
In the case of `O=S(=O)(Nc1ccc(C(F)(F)F)cc1)C(F)(F)F` it was 4.47; in that of `O=S(=O)(Nc1ccc(Cl)cc1Cl)C(F)(F)F`, 3.88.
With `O=S(=O)(Nc1ccc(Cl)cc1)C(F)(F)F`, the logD amounted to 3.96.
As for `O=S(=O)(Nc1ccc(-c2ccccc2)cc1)C(F)(F)F`, the figure is 4.97; as for `O=S(=O)(CF)Nc1ccc(Cl)cc1`, 2.25; as for `O=S(=O)(Nc1cccc(Br)c1)C(F)(F)F`, 3.82.
In the case of `O=S(=O)(Nc1ccc(Cl)cc1)C(F)F` it was 2.84.
Turning to `CS(=O)(=O)c1cccc(NS(=O)(=O)C(F)(F)F)c1`, the logD turned out to be 1.85.

The record behind these values is the SangsterLogP compilation.
